Source: US8952024B2, “Herbicidal pyrimidone derivatives” (E I du Pont de Nemours and Company, priority 2009, dated 2015)
Like-named read-outs stand apart in the source and are kept apart here.

Legend:
Format in all cases: in vivo
[1] = test system: rice (Oryza sativa); assay: Test B flooded paddy test; details: Oryza sativa
Summary of the method: (§1)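 Seedlings reaching 2 leaves are flooded 3 cm deep; test material is delivered to that water, which stays at the same depth. Plants remain in a greenhouse 13–15 days and are then scored by eye versus controls from 0 to 100.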

[2] = test system: umbrella sedge (Cyperus difformis); assay: Test B flooded paddy test; details: Cyperus difformis, 360 h
Summary of the method: as §1

[3] = test system: barnyardgrass (Echinochloa crus-galli); assay: Test B flooded paddy test; details: Echinochloa crus-galli, 360 h
Summary of the method: as §1

[4] = test system: ducksalad (Heteranthera limosa); assay: Test B flooded paddy test; details: Heteranthera limosa, 360 h
Summary of the method: as §1

[5] = test system: morningglory (Ipomoea spp.); assay: Test A pre-/postemergence plant response; details: Ipomoea, 240 h; for pest or weed control at 125 g/ha: 125 g ai/ha; for pest or weed control at 500 g/ha: 500 g ai/ha
Summary of the method: (§2)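 Each species was treated preemergence via directed soil spray and postemergence at the one- to two-leaf stage, with compounds formulated in a non-phytotoxic solvent plus surfactant. Visual injury relative to untreated controls was rated after about ten days on a 0–100 scale.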

[6] = test system: barnyardgrass (Echinochloa crus-galli); assay: Test A pre-/postemergence plant response; details: Echinochloa crus-galli, 240 h; for pest or weed control at 125 g/ha: 125 g ai/ha; for pest or weed control at 500 g/ha: 500 g ai/ha
Summary of the method: as §2

[7] = test system: giant foxtail (Setaria faberii); assay: Test A pre-/postemergence plant response; details: Setaria faberi, 240 h; for pest or weed control at 125 g/ha: 125 g ai/ha; for pest or weed control at 500 g/ha: 500 g ai/ha
Summary of the method: as §2

[8] = test system: pigweed (Amaranthus retroflexus); assay: Test A pre-/postemergence plant response; details: Amaranthus retroflexus, 240 h; for pest or weed control at 125 g/ha: 125 g ai/ha; for pest or weed control at 500 g/ha: 500 g ai/ha
Summary of the method: as §2

[9] = test system: wheat (Triticum aestivum); assay: Test A pre-/postemergence plant response; details: Triticum aestivum, 240 h; for plant injury at 125 g/ha: 125 g ai/ha; for plant injury at 500 g/ha: 500 g ai/ha
Summary of the method: as §2

[10] = test system: large crabgrass (Digitaria sanguinalis); assay: Test A pre-/postemergence plant response; details: Digitaria sanguinalis, 240 h; for pest or weed control at 125 g/ha: 125 g ai/ha; for pest or weed control at 500 g/ha: 500 g ai/ha
Summary of the method: as §2

[11] = test system: corn (Zea mays); assay: Test A pre-/postemergence plant response; details: Zea mays, 240 h; for Corn plant response rating (crop injury, 0 = no effect, 100 = complete kill) at 500 g/ha: 500 g ai/ha
Summary of the method: as §2

[12] = test system: velvetleaf (Abutilon theophrasti); assay: Test A pre-/postemergence plant response; details: Abutilon theophrasti, 240 h; for pest or weed control at 125 g/ha: 125 g ai/ha; for pest or weed control at 500 g/ha: 500 g ai/ha
Summary of the method: as §2

SMILES: O=C1CCCC(O)=C1C(=O)c1cnc(-c2ccccc2)n(Cc2ccccc2)c1=O [Compound 17, 5-[(2-hydroxy-6-oxo-1-cyclohexen-1-yl)carbonyl]-2-phenyl-3-(phenylmethyl)-4(3H)-pyrimidinone]
- plant injury at 250 g/ha ([1]; 250 g ai/ha, flooded paddy test, visual rating on 0 to 100 scale (0 no effect, 100 complete control) after 13 to 15 days, read-out: Plant response rating, Flood, Rice): 15%
- plant injury at 31 g/ha ([1]; Flood (flooded paddy test), 31 g ai/ha, scale of 0 to 100 where 0 is no effect and 100 is complete control, 13 to 15 days, read-out: Plant response rating, Rice): 0%
- plant injury at 62 g/ha ([1]; Flood (flooded paddy test), 62 g ai/ha, scale 0 to 100, 0 is no effect, 100 is complete control, 13 to 15 days, read-out: Plant response rating, Rice): 0%
- plant injury at 125 g/ha ([1]; Flood (flooded paddy test), 125 g ai/ha, scale 0 to 100, 0 is no effect, 100 is complete control, 13 to 15 days, read-out: Plant response rating, Rice): 0%
- pest or weed control at 250 g/ha ([2]; 250 g ai/ha, flooded paddy test, visual rating on 0 to 100 scale (0 no effect, 100 complete control) after 13 to 15 days, read-out: Plant response rating, Flood, Sedge, Umbrella): 80%
- pest or weed control at 31 g/ha ([2]; Flood (flooded paddy test), 31 g ai/ha, scale of 0 to 100 where 0 is no effect and 100 is complete control, 13 to 15 days, read-out: Plant response rating, Sedge, Umbrella): 0%
- pest or weed control at 62 g/ha ([2]; Flood (flooded paddy test), 62 g ai/ha, scale 0 to 100, 0 is no effect, 100 is complete control, 13 to 15 days, read-out: Plant response rating, Sedge, Umbrella): 70%
- pest or weed control at 125 g/ha ([2]; Flood (flooded paddy test), 125 g ai/ha, scale 0 to 100, 0 is no effect, 100 is complete control, 13 to 15 days, read-out: Plant response rating, Sedge, Umbrella): 70%
- pest or weed control at 250 g/ha ([3]; 250 g ai/ha, flooded paddy test, visual rating on 0 to 100 scale (0 no effect, 100 complete control) after 13 to 15 days, read-out: Plant response rating, Flood, Barnyardgrass): 25%
- pest or weed control at 31 g/ha ([3]; Flood (flooded paddy test), 31 g ai/ha, scale of 0 to 100 where 0 is no effect and 100 is complete control, 13 to 15 days, read-out: Plant response rating, Barnyardgrass): 0%
- pest or weed control at 62 g/ha ([3]; Flood (flooded paddy test), 62 g ai/ha, scale 0 to 100, 0 is no effect, 100 is complete control, 13 to 15 days, read-out: Plant response rating, Barnyardgrass): 20%
- pest or weed control at 125 g/ha ([3]; Flood (flooded paddy test), 125 g ai/ha, scale 0 to 100, 0 is no effect, 100 is complete control, 13 to 15 days, read-out: Plant response rating, Barnyardgrass): 25%
- pest or weed control at 250 g/ha ([4]; 250 g ai/ha, flooded paddy test, visual rating on 0 to 100 scale (0 no effect, 100 complete control) after 13 to 15 days, read-out: Plant response rating, Flood, Ducksalad): 45%
- pest or weed control at 31 g/ha ([4]; Flood (flooded paddy test), 31 g ai/ha, scale of 0 to 100 where 0 is no effect and 100 is complete control, 13 to 15 days, read-out: Plant response rating, Ducksalad): 0%
- pest or weed control at 62 g/ha ([4]; Flood (flooded paddy test), 62 g ai/ha, scale 0 to 100, 0 is no effect, 100 is complete control, 13 to 15 days, read-out: Plant response rating, Ducksalad): 30%
- pest or weed control at 125 g/ha ([4]; Flood (flooded paddy test), 125 g ai/ha, scale 0 to 100, 0 is no effect, 100 is complete control, 13 to 15 days, read-out: Plant response rating, Ducksalad): 30%
- pest or weed control at 125 g/ha ([5]; post-emergence, Postemergence, visual injury, 0 to 100 scale (0 no effect, 100 complete control), approx. ten days, read-out: Morningglory plant response rating): 20%
- pest or weed control at 500 g/ha ([5]; post-emergence, Postemergence, 0 to 100 scale, 0 = no effect, 100 = complete control, approx. ten days, read-out: Plant response rating, Morningglory): 70%
- pest or weed control at 125 g/ha ([5]; pre-emergence, Preemergence, 0 to 100 scale, 0 = no effect, 100 = complete control, read-out: Plant response rating, Morningglory): 0%
- pest or weed control at 500 g/ha ([5]; pre-emergence, Preemergence, visual injury, 0 to 100 scale (0 no effect, 100 complete control), approx. ten days, read-out: Plant response rating, Morningglory): 10%
- pest or weed control at 125 g/ha ([6]; post-emergence, Postemergence, visual injury, 0 to 100 scale (0 no effect, 100 complete control), approx. ten days, read-out: Barnyardgrass plant response rating): 10%
- pest or weed control at 500 g/ha ([6]; post-emergence, Postemergence, 0 to 100 scale, 0 = no effect, 100 = complete control, approx. ten days, read-out: Plant response rating, Barnyardgrass): 70%
- pest or weed control at 125 g/ha ([6]; pre-emergence, Preemergence, 0 to 100 scale, 0 = no effect, 100 = complete control, read-out: Plant response rating, Barnyardgrass): 0%
- pest or weed control at 500 g/ha ([6]; pre-emergence, Preemergence, visual injury, 0 to 100 scale (0 no effect, 100 complete control), approx. ten days, read-out: Plant response rating, Barnyardgrass): 80%
- pest or weed control at 125 g/ha ([7]; post-emergence, Postemergence, visual injury, 0 to 100 scale (0 no effect, 100 complete control), approx. ten days, read-out: Foxtail, Giant plant response rating): 0%
- pest or weed control at 500 g/ha ([7]; post-emergence, Postemergence, 0 to 100 scale, 0 = no effect, 100 = complete control, approx. ten days, read-out: Plant response rating, Foxtail, Giant): 30%
- pest or weed control at 125 g/ha ([7]; pre-emergence, Preemergence, 0 to 100 scale, 0 = no effect, 100 = complete control, read-out: Plant response rating, Foxtail, Giant): 0%
- pest or weed control at 500 g/ha ([7]; pre-emergence, Preemergence, visual injury, 0 to 100 scale (0 no effect, 100 complete control), approx. ten days, read-out: Plant response rating, Foxtail, Giant): 20%
- pest or weed control at 125 g/ha ([8]; post-emergence, Postemergence, visual injury, 0 to 100 scale (0 no effect, 100 complete control), approx. ten days, read-out: Pigweed plant response rating): 80%
- pest or weed control at 500 g/ha ([8]; post-emergence, Postemergence, 0 to 100 scale, 0 = no effect, 100 = complete control, approx. ten days, read-out: Plant response rating, Pigweed): 100%
- pest or weed control at 125 g/ha ([8]; pre-emergence, Preemergence, 0 to 100 scale, 0 = no effect, 100 = complete control, read-out: Plant response rating, Pigweed): 80%
- pest or weed control at 500 g/ha ([8]; pre-emergence, Preemergence, visual injury, 0 to 100 scale (0 no effect, 100 complete control), approx. ten days, read-out: Plant response rating, Pigweed): 90%
- plant injury at 125 g/ha ([9]; post-emergence, Postemergence, visual injury, 0 to 100 scale (0 no effect, 100 complete control), approx. ten days, read-out: Wheat plant response rating): 0%
- plant injury at 500 g/ha ([9]; post-emergence, Postemergence, 0 to 100 scale, 0 = no effect, 100 = complete control, approx. ten days, read-out: Plant response rating, Wheat): 10%
- plant injury at 125 g/ha ([9]; pre-emergence, Preemergence, 0 to 100 scale, 0 = no effect, 100 = complete control, read-out: Plant response rating, Wheat): 0%
- plant injury at 500 g/ha ([9]; pre-emergence, Preemergence, visual injury, 0 to 100 scale (0 no effect, 100 complete control), approx. ten days, read-out: Plant response rating, Wheat): 0%
- pest or weed control at 125 g/ha ([10]; post-emergence, Postemergence, visual injury, 0 to 100 scale (0 no effect, 100 complete control), approx. ten days, read-out: Crabgrass, Large plant response rating): 10%
- pest or weed control at 500 g/ha ([10]; post-emergence, Postemergence, 0 to 100 scale, 0 = no effect, 100 = complete control, approx. ten days, read-out: Plant response rating, Crabgrass, Large): 70%
- pest or weed control at 125 g/ha ([10]; pre-emergence, Preemergence, 0 to 100 scale, 0 = no effect, 100 = complete control, read-out: Plant response rating, Crabgrass, Large): 20%
- pest or weed control at 500 g/ha ([10]; pre-emergence, Preemergence, visual injury, 0 to 100 scale (0 no effect, 100 complete control), approx. ten days, read-out: Plant response rating, Crabgrass, Large): 100%
- plant injury at 125 g/ha ([11]; post-emergence, Postemergence, 125 g ai/ha, visual injury, 0 to 100 scale (0 no effect, 100 complete control), approx. ten days, read-out: Corn plant response rating): 0%
- Corn plant response rating (crop injury, 0 = no effect, 100 = complete kill) at 500 g/ha ([11]; post-emergence, Postemergence, 0 to 100 scale, 0 = no effect, 100 = complete control, approx. ten days): 10%
- Corn plant response rating (crop injury, 0 = no effect, 100 = complete kill) at 125 g/ha ([11]; pre-emergence, Preemergence, 125 g ai/ha, 0 to 100 scale, 0 = no effect, 100 = complete control): 0%
- Corn plant response rating (crop injury, 0 = no effect, 100 = complete kill) at 500 g/ha ([11]; pre-emergence, Preemergence, visual injury, 0 to 100 scale (0 no effect, 100 complete control), approx. ten days): 0%
- pest or weed control at 125 g/ha ([12]; post-emergence, Postemergence, visual injury, 0 to 100 scale (0 no effect, 100 complete control), approx. ten days, read-out: Velvetleaf plant response rating): 100%
- pest or weed control at 500 g/ha ([12]; post-emergence, Postemergence, 0 to 100 scale, 0 = no effect, 100 = complete control, approx. ten days, read-out: Plant response rating, Velvetleaf): 100%
- pest or weed control at 125 g/ha ([12]; pre-emergence, Preemergence, 0 to 100 scale, 0 = no effect, 100 = complete control, read-out: Plant response rating, Velvetleaf): 40%
- pest or weed control at 500 g/ha ([12]; pre-emergence, Preemergence, visual injury, 0 to 100 scale (0 no effect, 100 complete control), approx. ten days, read-out: Plant response rating, Velvetleaf): 100%
